Measured values: article PMC4736448, “Optical Control of Insulin Secretion Using an Incretin Switch” (Angewandte Chemie (International Ed. in English), 2015)
Starred links: 1 amine or outer side, 2 acyl side, 3 side chain; linkers in the order of their positions; H or OH if unused. Non-standard residues stand in square brackets, D forms with d. Residues, ends and D or L forms follow the SMILES beside them. X1 = O=C(Cc1cccc(/N=N/c2cccc(CN[*:1])c2)c1)[*:2]; X2 = O=C(Cc1cccc(/N=N\c2cccc(CN[*:1])c2)c1)[*:2]

Experiments:
[1] = tested on: pancreatic beta cells within intact islets; test: Multicellular Ca2+ imaging in intact islets of Langerhans; assay type: cell-based, mouse; conditions: for effect of GLP-1R blockade on trans-LirAzo-stimulated Ca2+ oscillations: Exendin 9-39 150 nM, n=9 recordings; for effect on cytosolic Ca2+ levels / multicellular Ca2+ spiking in islets / Ca2+ rises / beta-cell activity at non-permissive (low) glucose: 150 nM; for effect on cytosolic Ca2+ levels / multicellular Ca2+ spiking in islets: permissive (>8 mM) glucose, blue 440 nm (trans), UV 350 nm (cis); for Ca2+ rises / beta-cell activity at non-permissive (low) glucose: G3, 3 mM glucose, n=5 recordings
Description: (§1) All procedures involving primary tissue were regulated by the Home Office according to the Animals (Scientific Procedures) Act 1986 of the United Kingdom […]
(§2) Isolation of rodent islets
(§3) Islets were isolated from 8-12 week old female C57BL6 mice, as previously detailed,[2] and maintained in Roswell Park Memorial Institute (RPMI) medium supplemented with 10% foetal calf serum, 100 U/mL penicillin and 100 µg/mL […]
Multicellular Ca2+ imaging was performed using fluo2 and a Nipkow spinning disk confocal microscope, as detailed.[3] Briefly, pulsed λ = 491 nm light was delivered through a 10/0.3 NA objective (EC Plan-Neofluar, Zeiss) using a solid-state laser (Cobalt), and emitted signals captured from λ = 500-550 nm using a Hammamatsu ImageEM EM-CCD camera. Photoswitching was performed using either a λ = 440 nm laser or the epifluorescent port of the microscope configured with a λ = 350 ± 20 nm band-pass filter. Throughout, HEPES-bicarbonate buffer was used, containing in mM: 120 NaCl, 4.8 KCl, 24 NaHCO3, 0.5 Na2HPO4, 5 HEPES, 2.5 CaCl2 and 1.2 MgCl2. Compounds and D-glucose were added as […]

MIN6 beta cells [2] = test: cAMP responses in MIN6 beta cells (Cisbio HTRF cAMP assay); assay type: cell-based; conditions: permissive (>8 mM) glucose, n=7 repeats
Description: as §1, §2, §3
Chinese Hamster Ovary (CHO) cells stably expressing the GLP-1R were cultured in Dulbecco's Modified Eagle's Medium (DMEM) supplemented with 10% FBS, 1 x non-essential amino acids, 25 mM HEPES, 100 U/mL penicillin and 100 µg/mL streptomycin. […]
(§4) (live) and 2.5 µM of propidium iodide (dead), and […]/emission detected at λ = 491/525 nm and λ = 561/620 nm, respectively. The area of dead:live cells was calculated as a ratio. Apoptosis was assessed using a DeadEnd Fluorimetric TUNEL System staining kit (Promega).[3] The apoptotic cell mass was calculated as a fraction area versus the total cell mass. […]
(§5) mixture (33 mM glucose + 0.5 mM palmitate) in the presence or absence of compound. Apoptosis was subsequently determined using specific fluorescent immunostaining and a rabbit polyclonal antibody against cleaved caspase 3 (Cell Signaling Technology # 9661; 1:400), before analysis as above. […]
HitHunter No Wash PLUS assay. […] Absorbance/emission were detected at λ = 488/525 nm. […]

mouse islets = test: Glucose-stimulated insulin secretion from isolated islets; assay type: cell-based; conditions: 150 nM, 8 mM glucose, n=12 animals; for augmentation of glucose-stimulated insulin secretion: mouse islets, 30 min, dark (trans) or 350 nm light (cis)
Description: (§6) All procedures involving primary tissue were regulated by the Home Office […]
as §2, §3
transilluminator to induce cis-isomerization, or kept in the dark to maintain the trans-isomer. In addition, for HTS Ca2+ assays, λ = 340 ± 10 nm or λ = […] was delivered between acquisitions using the platereader’s inbuilt […]
Batches of six to eight islets were incubated for 30 min in Krebs-HEPES-bicarbonate solution containing in mM: 130 NaCl, 3.6 KCl, 1.5 CaCl2, 0.5 MgSO4, 0.5 NaH2PO4, 2 NaHCO3, 10 HEPES and 0.1% (wt/vol) bovine serum albumin, pH 7.4.[2] Treatments were applied as indicated and photoswitching performed at λ = 340 ± 10 nm using a BMG Fluostar Optima platereader, as above. Insulin concentrations in the supernatant were measured using a Cisbio HTRF assay according to the low-range (sensitive) protocol.
(§7) Non-multifactorial comparisons were made using Student’s t-test. Multifactorial comparisons were made using either one- or two-way ANOVA, or the Kruskal-Wallis test, followed by pairwise comparisons using Bonferonni’s or Dunn’s tests.
(§8) Log-transformed concentration-response curves were fitted using non-linear regression and the Hill equation. All analyses were conducted using Graphpad Prism (Graphpad Software) and IgorPro, and results deemed significant at […]

MIN6 beta cells [3] = test: Apoptosis induced by glucolipotoxicity in MIN6 beta cells (cleaved caspase 3); assay type: cell-based; conditions: 500 nM, 24 h, 33 mM glucose + 0.5 mM palmitate, n=8 repeats
Description: MIN6 cells (a kind gift from Dr Jun-ichi Miyazaki, Osaka University) were cultured in DMEM supplemented with 15% FBS, 10 mM glutamine, 20 mM HEPES, 0.0005% β-mercaptoethanol 100 U/mL penicillin and 100 µg/mL […]
Apoptosis was assessed using a DeadEnd Fluorimetric
TUNEL System staining kit (Promega).[3] The apoptotic cell mass was calculated as a fraction area versus the total cell mass. To investigate the pro-survival […]
as §5

[4] = cis-trans photoisomerization by UV/Vis spectroscopy; assay type: physicochemical; conditions: UV 330 nm (trans→cis), blue 440 nm (cis→trans), listed as names the isomer
From the text: Switching kinetics in response to blue (λ=440 nm; cis→trans) and UV (λ=330 nm; trans→cis) light were robust and fast, with no evidence of degradation or bleaching (Figure 2 b; see Figure S2 and Table S2 in the Supporting Information).

MIN6 beta cells [5] = assay type: cell-based; conditions: for signaling pathways engaged (Ca2+ rises with pathway antagonists): MIN6 beta cells, 150 nM, >8 mM glucose, antagonists of Epac2, L-type Ca2+ channels, KATP, IP3R, PKA, n=8 repeats
Description: as §6
MIN6 cells (a kind gift from Dr Jun-ichi Miyazaki, Osaka University) […]
HEPES, 0.0005% β-mercaptoethanol 100 U/mL penicillin and 100 µg/mL […]
Multicellular Ca2+ imaging was performed using fluo2 and a Nipkow spinning disk confocal microscope, as detailed.[3] […]
through a 10/0.3 NA objective (EC Plan-Neofluar, Zeiss) using a solid-state laser (Cobalt), and emitted signals captured from λ = 500-550 nm using a Hammamatsu ImageEM EM-CCD camera. Photoswitching was performed using either a λ = 440 nm laser or the epifluorescent port of the microscope configured with a λ = 350 ± 20 nm band-pass filter. Throughout, HEPES-bicarbonate buffer was used, containing in mM: 120 NaCl, 4.8 KCl, 24 NaHCO3, 0.5 Na2HPO4, 5 […]
HEPES, 2.5 CaCl2 and 1.2 MgCl2. […]
High-throughput (HTS) Ca2+ assays were performed using the DiscoverX
HitHunter No Wash PLUS assay. Treatments were automatically delivered at 37 °C using a BMG Labtech NOVOstar platereader and fluorescence intensity read […]
over 30-45 s. […] For all […]
transilluminator to induce cis-isomerization, or kept in the dark to maintain the […]
trans-isomer. […]
as §7, §8

islets = test: Cytotoxicity (dead:live and TUNEL) in islets; assay type: cell-based, mouse; conditions: 11 mM glucose-only; n=8-9 islets
Description: as §1, §2, §3
Cytotoxicity and apoptosis assays
as §4

Compound | effect of GLP-1R blockade on trans-LirAzo-stimulated Ca2+ oscillations [1] | effect of GLP-1R blockade on trans-LirAzo-stimulated Ca2+ oscillations ([1]; listed as Exendin 9-39) | effect on cytosolic Ca2+ levels / multicellular Ca2+ spiking in islets [1] | cAMP concentration response in MIN6 beta cells, cis versus trans (MIN6 beta cells [2]) | potentiation of glucose-stimulated insulin secretion (versus G8) (mouse islets) | augmentation of glucose-stimulated insulin secretion (mouse islets) | protection from apoptosis induced by glucolipotoxic insult (MIN6 beta cells [3]) | photoswitching kinetics τ1 [4] [s] | photoswitching kinetics τ2 [4] [min] | Ca2+ fluxes versus control injection (high glucose alone) (MIN6 beta cells [5]; Figure S6) | signaling pathways engaged (Ca2+ rises with pathway antagonists) (MIN6 beta cells [5]) | Ca2+ rises / beta-cell activity at non-permissive (low) glucose [1] | Ca2+ rises / beta-cell activity at non-permissive (low) glucose ([1]; listed as trans-LirAzo) | islet cell apoptosis under normal conditions (TUNEL) (islets) | protection from apoptosis induced by glucolipotoxic insult (MIN6 beta cells [3]; listed as trans isomer of LirAzo)
exendin 9–39 [reference compound] | abolished | abolishes | – | – | – | – | – | – | – | – | – | – | – | – | –
CC[C@H](C)[C@H](NC(=O)[C@H](Cc1ccccc1)NC(=O)[C@H](CCC(=O)O)NC(=O)[C@H](CCCCN)NC(=O)[C@H](C)NC(=O)[C@H](C)NC(=O)Cc1cccc(/N=N\c2cccc(CNC(=O)[C@H](CCC(=O)O)NC(=O)[C@H](CC(C)C)NC(=O)[C@H](Cc3ccc(O)cc3)NC(=O)[C@H](CO)NC(=O)[C@H](CO)NC(=O)[C@@H](NC(=O)[C@H](CC(=O)O)NC(=O)[C@H](CO)NC(=O)[C@@H](NC(=O)[C@H](Cc3ccccc3)NC(=O)[C@@H](NC(=O)CNC(=O)[C@H](CCC(=O)O)NC(=O)[C@H](C)NC(=O)[C@@H](N)Cc3c[nH]cn3)[C@@H](C)O)[C@@H](C)O)C(C)C)c2)c1)C(=O)N[C@@H](C)C(=O)N[C@@H](Cc1c[nH]c2ccccc12)C(=O)N[C@@H](CC(C)C)C(=O)N[C@H](C(=O)N[C@@H](CCCNC(=N)N)C(=O)NCC(=O)N[C@@H](CCCNC(=N)N)C(=O)NCC(=O)O)C(C)C [cis‐LirAzo] (H-HAEGTFTSDVSSYLE[X2]AAKEFIAWLVRGRG-OH) | – | – | reduced | significantly left‐shifted, with a higher maximal response | potentiate | ca. 2.5 fold | Lira and trans‐LirAzo are more protective than cis‐LirAzo | 51.0 ± 2.4 | 11.1 ± 4.0 | only just above those observed following control injection | signaled via the cAMP binding partners Epac2 and PKA, as well as IP3 | – | – | – | –
CC[C@H](C)[C@H](NC(=O)[C@H](Cc1ccccc1)NC(=O)[C@H](CCC(=O)O)NC(=O)[C@H](CCCCN)NC(=O)[C@H](C)NC(=O)[C@H](C)NC(=O)Cc1cccc(/N=N/c2cccc(CNC(=O)[C@H](CCC(=O)O)NC(=O)[C@H](CC(C)C)NC(=O)[C@H](Cc3ccc(O)cc3)NC(=O)[C@H](CO)NC(=O)[C@H](CO)NC(=O)[C@@H](NC(=O)[C@H](CC(=O)O)NC(=O)[C@H](CO)NC(=O)[C@@H](NC(=O)[C@H](Cc3ccccc3)NC(=O)[C@@H](NC(=O)CNC(=O)[C@H](CCC(=O)O)NC(=O)[C@H](C)NC(=O)[C@@H](N)Cc3c[nH]cn3)[C@@H](C)O)[C@@H](C)O)C(C)C)c2)c1)C(=O)N[C@@H](C)C(=O)N[C@@H](Cc1c[nH]c2ccccc12)C(=O)N[C@@H](CC(C)C)C(=O)N[C@H](C(=O)N[C@@H](CCCNC(=N)N)C(=O)NCC(=O)N[C@@H](CCCNC(=N)N)C(=O)NCC(=O)O)C(C)C [trans‐LirAzo] (H-HAEGTFTSDVSSYLE[X1]AAKEFIAWLVRGRG-OH) | – | – | induced increases in the baseline amplitude and frequency of multicellular Ca^2+ spiking | – | – | ca. 1.4 fold | more protective than cis‐LirAzo | 32.3 ± 1.6 | 7.5 ± 3.4 | – | signaled via the cAMP binding partners Epac2 and PKA, as well as IP3 | unable to stimulate changes in beta‐cell activity | unable | do not induce | significant protection
